Experimental data as given in patent US20020137929A1, “1 - (3-heterocyclylphenyl) isothiourea, -isourea, -guanidine and -amidine herbicidal agents” (Intellectual Property Department, BASF Aktiengesellschaft, priority 1998, published 2002).

What was measured:
[1] = system: TRZAWR (Wheat, Winter, cv Riband); assay: Postemergence herbicidal evaluation; format: in vivo, Triticum aestivum
Outline: (§1)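 ~2-wk seedlings; postemergence spray, 40 psi; vehicle 1:1 acetone:water + 0.5% Tween 20; rate ≈0.0156–0.500 kg/ha; greenhouse hold; scored 4–5 wk after treatment, 0–9 scale vs control; repeat tests averaged.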

ORYSAT (Rice, Tebonnet) [2] = assay: Rice tolerance to post-transplant applications, flooded paddy conditions (Table IV); format: in vivo, Oryza sativa, (L.) Tebonnet; conditions: in vivo
Outline: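 Herbicidal effect is judged by eye on a 0–9 scale versus control, 3–4 weeks after dosing. Dosing is into flood water kept 1.5–3 cm over the soil, at about 0.0313–0.500 kg/ha in aqueous/acetone 50/50 v/v, on 3–5 cm weeds and 1.5–2.5-leaf rice seedlings.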

MOOVA (Monochoria) = assay: Postemergence weed control under flooded paddy conditions; format: in vivo, Monochoria vaginalis; conditions: postemergence weeds
Outline: (§2)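 Injury ratings (0–9 scale covering stand, vigor, malformation, size, chlorosis and overall appearance versus control) were made three to four weeks after treatment. Test material, about 0.0313 to 0.500 kg/ha a.i. in 50/50 v/v aqueous/acetone, was added to flood water 1.5 to 3 cm deep over 3 to 5 cm weeds and 1.5 to 2.5 leaf rice.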

AMBEL (Ragweed, Common) = assay: Postemergence herbicidal evaluation; format: in vivo, Ambrosia artemisifolia
Outline: as §1

[3] = system: CHEAL (Lambsquarters, Common); assay: Preemergence herbicidal evaluation; format: in vivo, Chenopodium album; conditions: rated 4-5 weeks after treatment
Outline: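 Herbicidal effect scored visually, 0-9, at 4 to 5 weeks against a control; compound applied preemergence by aqueous acetone spray to seeded soil at about 0.0156 to 0.500 kg/ha.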

ORYSAT (Rice, Tebonnet) [4] = assay: Rice tolerance to post-transplant applications, flooded paddy conditions (Table III); format: in vivo, Oryza sativa, (L.) Tebonnet; conditions: in vivo
Outline: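 Injury scored 0-9 by eye against untreated control, judging stand, vigor, malformation, size and chlorosis, three to four weeks after treatment. Compound in 50/50 aqueous/acetone, about 0.0313 to 0.500 kg/ha, was applied to paddy water (1.5 to 3 cm depth) three days after transplanting paired ten-day-old Tebonnet rice seedlings.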

GALAP (Galium) = assay: Postemergence herbicidal evaluation; format: in vivo, Galium aparine
Outline: as §1

[5] = system: SAGPY (Arrowhead (Pygmaea)); assay: Postemergence weed control under flooded paddy conditions; format: in vivo, Sagittaria pygmaea; conditions: postemergence weeds
Outline: as §2

[6] = rate 0.0625 kg/ha, 3-4 weeks after treatment
[7] = rate 0.1250 kg/ha, 3-4 weeks after treatment
[8] = rate 0.2500 kg/ha, 3-4 weeks after treatment
[9] = Rate 0.2500 kg/ha, rated 3 to 4 weeks after treatment
[10] = Rate 0.0313 kg/ha, rated 3 to 4 weeks after treatment
[11] = Rate 0.0625 kg/ha, rated 3 to 4 weeks after treatment
[12] = Rate 0.1250 kg/ha, rated 3 to 4 weeks after treatment

C[C@@H](C(=O)O)N1C(=O)CS/C1=N/c1cc(-n2c(=O)cc(C(F)(F)F)n(C)c2=O)c(F)cc1Cl [Compound 51, 2-{{2-Chloro-5-[3,6-dihydro-3-methyl-2,6-dioxo-4-(trifluoromethyl)-1(2H)-pyrimidinyl]-4-fluoro-phenyl}imino}-α-methyl-4-oxo-3-thiazolidineacetic acid, L-]
Postemergence herbicidal rating TRZAWR ([1]; Rate 0.0158 kg/ha): 4.0
Postemergence herbicidal rating TRZAWR ([1]; Rate 0.0315 kg/ha): 5.5
Postemergence herbicidal rating TRZAWR ([1]; Rate 0.0630 kg/ha): 7.0
Herbicidal rating ORYSAT (rice tolerance) (ORYSAT (Rice, Tebonnet) [2]): 0.0
Herbicidal rating MOOVA (MOOVA (Monochoria); [6]): 3.0
Herbicidal rating MOOVA (MOOVA (Monochoria); [7]): 4.0
Herbicidal rating MOOVA (MOOVA (Monochoria); [8]): 4.0
Postemergence herbicidal rating AMBEL (AMBEL (Ragweed, Common); Rate 0.0158 kg/ha): 6.0
Postemergence herbicidal rating AMBEL (AMBEL (Ragweed, Common); Rate 0.0315 kg/ha): 6.0
Postemergence herbicidal rating AMBEL (AMBEL (Ragweed, Common); Rate 0.0630 kg/ha): 9.0
Preemergence herbicidal rating CHEAL ([3]; rate 0.0156 kg/ha): 3.0
Preemergence herbicidal rating CHEAL ([3]; rate 0.0313 kg/ha): 9.0
Preemergence herbicidal rating CHEAL ([3]; rate 0.0625 kg/ha): 9.0
Preemergence herbicidal rating CHEAL ([3]; rate 0.1250 kg/ha): 9.0
Preemergence herbicidal rating CHEAL ([3]; rate 0.2500 kg/ha): 9.0
Herbicidal rating ORYSAT (rice tolerance) (ORYSAT (Rice, Tebonnet) [4]): 0.0
Postemergence herbicidal rating GALAP (GALAP (Galium); Rate 0.0158 kg/ha): 4.0
Postemergence herbicidal rating GALAP (GALAP (Galium); Rate 0.0315 kg/ha): 9.0
Postemergence herbicidal rating GALAP (GALAP (Galium); Rate 0.0630 kg/ha): 9.0
Herbicidal rating SAGPY [5, 6]: 0.0
Herbicidal rating SAGPY [5, 7]: 0.0
Herbicidal rating SAGPY [5, 8]: 0.0

Cn1c(C(F)(F)F)cc(=O)n(-c2cc(/N=C3/SC(CC(=O)O)C(=O)N3CC(=O)O)c(Cl)cc2F)c1=O (stereo not drawn) [Compound 61, 2-{{2-Chloro-5-[3,6-dihydro-3-methyl-2,6-dioxo-4-(trifluoromethyl)-1(2H)-pyrimidinyl]-4-fluorophenyl}imino}-4-oxo-3,5-thiazolidinediacetic acid]
Postemergence herbicidal rating TRZAWR ([1]; Rate 0.0158 kg/ha): 0.5
Postemergence herbicidal rating TRZAWR ([1]; Rate 0.0315 kg/ha): 0.5
Postemergence herbicidal rating TRZAWR ([1]; Rate 0.0630 kg/ha): 1.5
Herbicidal rating ORYSAT (rice tolerance) (ORYSAT (Rice, Tebonnet) [2]): 0.0
Herbicidal rating MOOVA (MOOVA (Monochoria); [9]): 0.0
Postemergence herbicidal rating AMBEL (AMBEL (Ragweed, Common); Rate 0.0158 kg/ha): 0.0
Postemergence herbicidal rating AMBEL (AMBEL (Ragweed, Common); Rate 0.0315 kg/ha): 0.0
Postemergence herbicidal rating AMBEL (AMBEL (Ragweed, Common); Rate 0.0630 kg/ha): 0.0
Preemergence herbicidal rating CHEAL ([3]; rate 0.1250 kg/ha): 7.0
Preemergence herbicidal rating CHEAL ([3]; rate 0.2500 kg/ha): 9.0
ORYSAT herbicidal effect rating (rice tolerance) (ORYSAT (Rice, Tebonnet) [4]): 0.0
Postemergence herbicidal rating GALAP (GALAP (Galium); Rate 0.0158 kg/ha): 0.0
Postemergence herbicidal rating GALAP (GALAP (Galium); Rate 0.0315 kg/ha): 0.0
Postemergence herbicidal rating GALAP (GALAP (Galium); Rate 0.0630 kg/ha): 0.0
Herbicidal rating SAGPY [5, 9]: 0.0

CN1C(=O)C(CC(=O)O)SC1=Nc1cc(-n2c(=O)cc(C(F)(F)F)n(C)c2=O)c(F)cc1Cl (stereo not drawn) [Compound 63, 2-{{2-Chloro-5-[3,6-dihydro-3-methyl-2,6-dioxo-4-(trifluoromethyl)-1(2H)-pyrimidinyl]-4-fluoro-phenyl}imino}-3-methyl-4-oxo-5-thiazolidineacetic acid]
Postemergence herbicidal rating TRZAWR ([1]; Rate 0.0158 kg/ha): 5.5
Postemergence herbicidal rating TRZAWR ([1]; Rate 0.0315 kg/ha): 6.0
Postemergence herbicidal rating TRZAWR ([1]; Rate 0.0630 kg/ha): 7.0
Herbicidal rating ORYSAT (rice tolerance) (ORYSAT (Rice, Tebonnet) [2]): 3.0
Herbicidal rating MOOVA (MOOVA (Monochoria); [10]): 9.0
Herbicidal rating MOOVA (MOOVA (Monochoria); [11]): 9.0
Herbicidal rating MOOVA (MOOVA (Monochoria); [12]): 9.0
Herbicidal rating MOOVA (MOOVA (Monochoria); [9]): 9.0
Postemergence herbicidal rating AMBEL (AMBEL (Ragweed, Common); Rate 0.0158 kg/ha): 6.0
Postemergence herbicidal rating AMBEL (AMBEL (Ragweed, Common); Rate 0.0315 kg/ha): 6.0
Postemergence herbicidal rating AMBEL (AMBEL (Ragweed, Common); Rate 0.0630 kg/ha): 9.0
Preemergence herbicidal rating CHEAL ([3]; rate 0.0313 kg/ha): 7.0
Preemergence herbicidal rating CHEAL ([3]; rate 0.0625 kg/ha): 9.0
Preemergence herbicidal rating CHEAL ([3]; rate 0.1250 kg/ha): 9.0
Preemergence herbicidal rating CHEAL ([3]; rate 0.2500 kg/ha): 9.0
ORYSAT herbicidal effect rating (rice tolerance) (ORYSAT (Rice, Tebonnet) [4]): 3.0
Postemergence herbicidal rating GALAP (GALAP (Galium); Rate 0.0158 kg/ha): 1.0
Postemergence herbicidal rating GALAP (GALAP (Galium); Rate 0.0315 kg/ha): 6.0
Postemergence herbicidal rating GALAP (GALAP (Galium); Rate 0.0630 kg/ha): 7.0
Herbicidal rating SAGPY [5, 10]: 4.0
Herbicidal rating SAGPY [5, 11]: 7.0
Herbicidal rating SAGPY [5, 12]: 9.0
Herbicidal rating SAGPY [5, 9]: 9.0
